This note sets out measurements from patent publication US20250011316A1, “PEROXIREDOXIN 3 INHIBITORS AND METHODS OF USE FOR TREATING CANCER” (Wake Forest University Health Sciences, priority 2022, published 2025).

Values after ≈ are worked out from the molar mass of the structure shown. Where two headings read alike, the source gives them in different places.

Data set [1] concerns human SK—OV-3 ovarian cancer cells. Briefly: Cellular Activity Assay (cytotoxicity, crystal violet). It counts as cell-based. The settings on record: SK—OV-3 cells, treated for 48 hr, 0.1-100 μM, crystal violet absorbance at 540 nm. The text has this:
(§1) To test the activity of compounds, two complimentary assays were used as described below. The Biochemical PRX3 Inhibition Assay tests the ability of each compound to crosslink PRX3 in a simple, in vitro system. In the Cellular Activity Assay, we are testing the ability of compounds to kill SK—OV-3 ovarian cancer cells.
The Cellular Activity Assay measures the EC50 of each compound in human SK—OV-3 ovarian cancer cells TS to be taken into the cell, transported to the mitochondria, and crosslink PRX3.
The cytotoxicity of compounds was measured as described in Nelson et al. (2021) Antioxidants (Basel) 10, 150; Cunniff et al. (2015) PloS one 10, e0127310; and Newick et al. (2012) PloS one 7, e39404. SK—OV-3 is an adherent, epithelial, adenocarcinoma cell line obtained from ATCC (ref #: HTB-77). SK—OV-3 cells are resistant to the commonly used chemotherapeutics, cis-platinum and doxorubicin. For this […], SK—OV-3 cells were plated in a 96-well plate. After 24 h recovery, the cells were treated for 48 hr with multiple concentrations of each compound ranging from 0.1-100 μM.
Cells were washed with PBS to remove dead cells and the remaining live cells were fixed with 3.0% formaldehyde and stained with 0.1% crystal violet. The amount of crystal violet was determined by reading the absorbance at 540 nm (crystal violet dye dissolved in 100% methanol) using a plate reader. The signal for crystal violet dye is proportional to the biomass of remaining live cells. GraphPad Prism9 software was used to calculate the effective inhibitory concentration (EC50) of test compounds. Results for each compound, are normalized to the amount of cells in control wells treated with the equivalent concentration of DMSO (negative control). TS or Compound 4 were included in each set of assays as a positive control.

A further data set is described as follows: Solubility Assay (HPLC). It counts as physicochemical. The settings on record: 20 mM HEPES, 100 mM NaCl, pH 7.5, 18-24 hours at ambient temperature. On the procedure:
A 20 mM stock solution was made for each compound in DMSO. To measure solubility, 0.03-0.05 mL of the stock was added to 0.27 mL 20 mM HEPES, 100 mM NaCl, pH 7.5. The solution was mixed and rotated 18-24 hours at ambient temperature. The next day, solutions were centrifuged for 10 min at 20,000×g at […] to remove insoluble, solid material. Next, 100 μL of the supernatant containing the soluble compound was added to 900 μL DMSO and High Performance Liquid Chromatography was performed as described in Table 1 and either HIPLC gradient 1 (Table 2) or HIPLC gradient 2 (Table 3). For each analog, a 200 μM standard and a 20 μM standard were prepared and run in parallel (standards were dissolved completely in […]). The amount ofLcompound in the experimental sample was calculated by comparing the area under the curve for compound peak to the area for the closest standard and correcting for dilution.

A further data set deals with T1, purified human PRX3 (Homo sapiens, UniProt P30048).
T1 construct: made in house
T1 sequence (P30048 62-256): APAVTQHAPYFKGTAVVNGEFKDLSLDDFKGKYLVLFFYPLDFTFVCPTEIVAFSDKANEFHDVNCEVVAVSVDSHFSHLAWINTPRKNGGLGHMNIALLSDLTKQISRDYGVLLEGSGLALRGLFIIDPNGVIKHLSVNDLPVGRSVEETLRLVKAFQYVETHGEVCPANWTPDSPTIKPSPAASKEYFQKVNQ
Briefly: Biochemical PRX3 Inhibition Assay (non-reducible crosslink by SDS PAGE + single adduct by MALDI-TOF MS). The settings on record: 100 μM PRX3 with TRX2/thioredoxin reductase/NADPH system and hydrogen peroxide, 1-2 hr at 37° C.
Text: The compounds described herein generally react with two essential cysteine residues in the mitochondrial peroxidase PRX3, leading to the formation of a non-reducible, covalent crosslink of two PRX3 monomers. This crosslink inactivates PRX3. Increased PRX3 crosslink is associated with mitochondrial stress, increased cell death in cell models of malignant mesothelioma and is associated with decreased tumor volume in a mouse model. Cunniff et al. (2015) PloS one 10, e0127310.
as §1
This assay tests the ability of each compound to form a covalent adduct with PRX3. The assay is performed as described in Nelson et al. (2021) Antioxidants (Basel) 10, 150; and Cunniff et al. (2015) PloS one 10, e0127310, and follows the appearance of non-reducible PRX3 crosslinks by SDS PAGE gel electrophoresis and follows the appearance of single PRX3 adducts by mass spectrometry. For this assay, purified human PRX3, hydrogen peroxide (the PRX3 substrate) and all the components required to enable PRX3 to catalytically cycle (thioredoxin-thioredoxin reductase-NAPDH system) are included (details below).
The biochemical PRX3 Inhibition assay contains 100 μM PRX3, 50 μM human TRX2, 0.5 μM mouse thioredoxin reductase, and a NADPH regenerating system composed of 3.2 mM glucose 6-phosphate, 3.2 U/ml glucose 6-phosphate dehydrogenase and 0.4 mM NADPH. Samples are incubated for 1-2 hr at 37° C. with either 0.2 mM TS (positive control), compounds or an equivalent volume of DMSO (negative control). During this incubation, hydrogen peroxide is added to induce turnover of PRX3. Reactions are stopped by the addition of a buffer containing 100 mM dithiothreitol (to break disulfide bonds) and SDS (detergent to denature proteins). NADPH, Glucose 6-Phosphate, and glucose 6-phosphate dehydrogenase were purchased from Sigma Aldrich. PRX3, thioredoxin, and thioredoxin reductase were all purified to >98% purity in the Lowther laboratory according to protocols referenced in Nelson et al. (2021) Antioxidants (Basel) 10, 150; and Cunniff et al. (2015) PloS one 10, e0127310.
To measure the amount of PRX3 crosslink, proteins in the reaction were separated by SDS-polyacrylamide gel electrophoresis and stained for total protein using GelCode Blue (Life Technologies). The amount of unmodified PRX3 and TS-PRX3 crosslink was measured by densiometric analysis of the signal for the PRX3 band running at the MW of a PRX3 crosslink (˜46 kDa) compared to the PRX3 signal at the MW of the un-modified PRX3 (−23 kD).
To measure covalent adduct formation on a single PRX3 monomer, each reaction was exchanged into a mass spectrometry compatible buffer containing 40 mM ammonium citrate, pH 8.3 made in HPLC water. Sample was mixed 1:1 with a matrix solution containing 30 mg/mL sinapinic acid in 70% (vol/vol) acetonitrile, 0.2% formic acid and spotted to onto the sample plate. PRX3 mass was measured by MALDI-TOF MS analysis on a Bruker Daltonics MALDI-TOF MS spectrometer. Spectra were analyzed in FLEXAnalysis Software. The intensity of the reduced PRX3 peak (SH) and intensity of the analog adduct peak was determined and corrected for background signal at the adduct peak in the DMSO control. The fraction of single analog adduct in the monomer peak was determined by dividing the intensity of the adduct peak by the summed intensity of the SH and adduct peaks.

Where [2] appears, read: HEPES/NaCl buffer, aqueous with cosolvent or surfactant or cyclodextrin, kinetic from dmso stock, read-out: Solubility.

In the case of `C=C(NC(=O)c1csc(-c2ccc(CNC(=O)CCCCCNC(=O)OC(C)(C)C)cc2)n1)C(=O)NC(=C)C(=O)OC` [Compound 44, Methyl 2-(2-(2-(4-((6-((tert-butoxycarbonyl)amino)hexanamido)methyl)phenyl)thiazole-4-carboxamido)acrylamido)acrylate], the EC50 (usually the concentration at which the effect is half-maximal) in data set [1] fell in the range of 1 to 10 µM. Further, the solubility (as a rule, the concentration that dissolves in the medium under given conditions) in “Solubility Assay (HPLC)” is “+ (<0.1 mM)”. For the same molecule, the “PRX3 Inhibition (Crosslink + Mono-adduct)” value (from here on “PRX3 Inhibition”) at purified human PRX3 is reported as “+++ (>90%)”.
Regarding `C=C(NC(=O)c1csc(-c2ccc(CNC(=O)OCC3CCOCC3)cc2)n1)C(=O)NC(=C)C(=O)OC` [Compound 45, Methyl 2-(2-(2-(4-(((((tetrahydro-2H-pyran-4-yl)methoxy)carbonyl)amino)methyl)phenyl)thiazole-4-carboxamido)acrylamido)acrylate], the half-maximal effective concentration (EC50) in data set [1] (Homo sapiens) was 1 to 10 µM. Also, in “Solubility Assay (HPLC)” (setting [2]), the solubility was below 100 µM. Moreover, at purified human PRX3, the “PRX3 Inhibition” value is on record as “++ (50-90%)”.
Molecule `C=C(NC(=O)c1csc(N2CCC(NC(=O)C3CCOCC3)CC2)n1)C(=O)NC(=C)C(=O)OC` [Compound 46, Methyl 2-(2-(2-(4-(tetrahydro-2H-pyran-4-carboxamido)piperidin-1-yl)thiazole-4-carboxamido)acrylamido)acrylate] came in with an EC50 in data set [1] (Homo sapiens) of 1 to 10 µM. For the same molecule, the solubility in the data set “Solubility Assay (HPLC)” (setting [2]) lay in the range of 100 to 1000 µM (≈ 49.2 to 492 µg/mL). For the same molecule, the “PRX3 Inhibition” value at purified human PRX3 is on record as “+++ (>90%)”.
In data set [1] (Homo sapiens, SK-OV-3, 48 h), `C=C(NC(=O)c1csc(N2CCN(C(=O)COCCOC)CC2)n1)C(=O)NC(=C)C(=O)OC` [Compound 47, Methyl 2-(2-(2-(4-(2-(2-methoxyethoxy)acetyl)piperazin-1-yl)thiazole-4-carboxamido)acrylamido)acrylate] showed a concentration giving a half-maximal response (EC50) of 25 to 100 µM. For the same molecule, in the data set “Solubility Assay (HPLC)” (setting [2]), the solubility is above 1000 µM. Also, at purified human PRX3, the “PRX3 Inhibition” value was “++ (50-90%)”.
`C=C(NC(=O)c1csc(-c2ccc(NC(=O)CCCCCCl)cc2)n1)C(=O)NC(=C)C(=O)OC` [Compound 48, Methyl 2-(2-(2-(4-(6-chlorohexanamido)phenyl)thiazole-4-carboxamido)acrylamido)acrylate]: the EC50 in data set [1] (Homo sapiens) lay within 1 to 10 µM. For the same molecule, the solubility in the data set “Solubility Assay (HPLC)” (setting [2]) was below 100 µM. Also, the “PRX3 Inhibition” value at purified human PRX3 was “++ (50-90%)”.
`C=C(NC(=O)c1csc(-c2ccc(CNC(=O)OCCOCCNC(=O)OC(C)(C)C)cc2)n1)C(=O)NC(=C)C(=O)OC` [Compound 49, Methyl 2-(2-(2-(4-(13,13-dimethyl-3,11-dioxo-4,7,12-trioxa-2,10-diazatetradecyl)phenyl)thiazole-4-carboxamido)acrylamido)acrylate] showed a 50% effective concentration (EC50) in data set [1] (Homo sapiens, SK-OV-3, 48 h) of 1 to 10 µM. Also, the solubility in the data set “Solubility Assay (HPLC)” (setting [2]) was below 100 µM. Besides, at purified human PRX3, the “PRX3 Inhibition” value was “+++ (>90%)”.
For the molecule `C=C(NC(=O)c1csc(-c2ccc(CNC(=O)OCCCCCCN=[N+]=[N-])cc2)n1)C(=O)NC(=C)C(=O)OC` [Compound 50, Methyl 2-(2-(2-(4-(((((6-azidohexyl)oxy)carbonyl)amino)methyl)phenyl)thiazole-4-carboxamido)acrylamido)acrylate], the 50% effective concentration (EC50) in data set [1] (Homo sapiens) fell in the range of 1 to 10 µM. Moreover, in the data set “Solubility Assay (HPLC)” (setting [2]), the solubility is below 100 µM. Further, on purified human PRX3, the “PRX3 Inhibition” value was “+ (5-50%)”.
For the molecule `C=C(NC(=O)c1csc(N2CCC(CNC(=O)C3CCOCC3)CC2)n1)C(=O)NC(=C)C(=O)OC` [Compound 52, methyl 2-(2-(2-(4-((tetrahydro-2H-pyran-4-carboxamido)methyl)piperidin-1-yl)thiazole-4-carboxamido)acrylamido)acrylate], the half-maximal effective concentration (EC50) in data set [1] (Homo sapiens) was 10 to 25 µM. For the same molecule, in the data set “Solubility Assay (HPLC)” (setting [2]), the solubility was below 100 µM. Moreover, the “PRX3 Inhibition” value on purified human PRX3 is listed as “+++ (>90%)”.
In turn, `C=C(NC(=O)c1csc(N2CCC(C(=O)NC3CCOCC3)CC2)n1)C(=O)NC(=C)C(=O)OC` [Compound 53, Methyl 2-(2-(2-(4-((tetrahydro-2H-pyran-4-yl)carbamoyl)piperidin-1-yl)thiazole-4-carboxamido)acrylamido)acrylate] displayed an EC50 in data set [1] (Homo sapiens) of 10 to 25 µM. The solubility in the data set “Solubility Assay (HPLC)” (setting [2]) is below 100 µM. In addition, the “PRX3 Inhibition” value at purified human PRX3 is “+++ (>90%)”.
Taken in the same sequence, the figures for `C=C(NC(=O)c1csc(N2CCC[C@H](NC(=O)C3CCOCC3)C2)n1)C(=O)NC(=C)C(=O)OC` [Compound 54, methyl (S)-2-(2-(2-(3-(tetrahydro-2H-pyran-4-carboxamido)piperidin-1-yl)thiazole-4-carboxamido)acrylamido)acrylate] were 25 to 100 µM, below 100 µM and “++ (50-90%)”.
In data set [1] (Homo sapiens, SK-OV-3, 48 h), `C=C(NC(=O)c1csc(N2CCC(NC(=O)COC)CC2)n1)C(=O)NC(=C)C(=O)OC` [Compound 55, Methyl 2-(2-(2-(4-(2-methoxyacetamido)piperidin-1-yl)thiazole-4-carboxamido)acrylamido)acrylate] showed a half-maximal effective concentration (EC50) of 10 to 25 µM. Besides, in the data set “Solubility Assay (HPLC)” (setting [2]), the solubility is below 100 µM. On purified human PRX3, the “PRX3 Inhibition” value is on record as “++ (50-90%)”.
Consider `C=C(NC(=O)c1csc(N2C[C@@H](C)N(C(=O)OC(C)(C)C)[C@@H](C)C2)n1)C(=O)NC(=C)C(=O)OC` [Compound 56, Tert-butyl (cis)-4-(4-((3-((3-methoxy-3-oxoprop-1-en-2-yl)amino)-3-oxoprop-1-en-2-yl)carbamoyl)thiazol-2-yl)-2,6-dimethylpiperazine-1-carboxylate], for which the half-maximal effective concentration (EC50) in data set [1] (Homo sapiens) was 1 to 10 µM. Also, the solubility in the data set “Solubility Assay (HPLC)” (setting [2]) was below 100 µM. In addition, the “PRX3 Inhibition” value at purified human PRX3 is listed as “++ (50-90%)”.
